In one data set the target is NTRK3 (Homo sapiens (Human), UniProt Q16288). Description: NTRK3 inhibition (IC50). To be noted: read-out: NTRK3 IC50.
Data set [1] can be described thus: Metabolic stability in mouse liver microsomes (MLM).
A further data set has as its target NTRK2 (Homo sapiens (Human), UniProt Q16620). Put plainly: NTRK2 inhibition (IC50). The format is biochemical.
Data set [2] is described as follows: Metabolic stability in human liver microsomes (HLM).
In another data set the target is NTRK1 (Homo sapiens (Human), UniProt P04629). Put plainly: NTRK1 inhibition (IC50). Conditions: read-out: NTRK1 IC50.
The subject of another data set is endometriotic lesions. Put plainly: Endometriosis mouse model, lesion efficacy. The data set is classed as in vivo. Here is the method: FIGS. 17A-17F depict the robust efficacy of the inhibitory compounds of the present disclosure as NTRK2 inhibitors for inhibition of endometriotic lesion growth in mice utilizing CDD-3132 as an example. FIG. 17A provides a schematic overview of the experiment performed. FIGS. 17B-17C provide photographs showing excised lesions with administration of a control (FIG. 17B) or CDD-3132 (10 mg/kg/day) (FIG. 17C).
(§1) In one aspect, the present disclosure provides exemplary data relating to the administration of NTRK2 inhibitors in a mouse model of endometriosis (FIG. 14). In certain embodiments, the recipient mouse is administered the NTRK2 inhibitor and/or controls on day 14 after intraperitoneal injection of endometrium of the donor mouse. In certain embodiments, the recipient mouse is sacrificed and quantitatively assessed on day 28.

Data set [3] in a line: Brain uptake in mice 24 hours post-administration. To be noted: mouse, brain, 24 h, read-out: Brain Concentration at 24 h (ng/mg). The format is in vivo, mouse.
Data set [4] is described as follows: Endometriosis mouse model, liver and kidney toxicity (organ weight, ALT, AST). Details: ALT (Mean ± SD) / AST (Mean ± SD): unit not given here. The format is in vivo. To be noted: for effect on liver and/or kidney weight and/or serum elevation of ALT and AST: 10 mg/kg, mice with endometriotic lesions. As to the method:
as §1

[5] abbreviates: 10 mg/kg, compared to vehicle control.
The mark [6] stands for this setting: i.p. dose of 10 mg/kg/day for 14 days.

NTRK1, sequence (P04629 33-796): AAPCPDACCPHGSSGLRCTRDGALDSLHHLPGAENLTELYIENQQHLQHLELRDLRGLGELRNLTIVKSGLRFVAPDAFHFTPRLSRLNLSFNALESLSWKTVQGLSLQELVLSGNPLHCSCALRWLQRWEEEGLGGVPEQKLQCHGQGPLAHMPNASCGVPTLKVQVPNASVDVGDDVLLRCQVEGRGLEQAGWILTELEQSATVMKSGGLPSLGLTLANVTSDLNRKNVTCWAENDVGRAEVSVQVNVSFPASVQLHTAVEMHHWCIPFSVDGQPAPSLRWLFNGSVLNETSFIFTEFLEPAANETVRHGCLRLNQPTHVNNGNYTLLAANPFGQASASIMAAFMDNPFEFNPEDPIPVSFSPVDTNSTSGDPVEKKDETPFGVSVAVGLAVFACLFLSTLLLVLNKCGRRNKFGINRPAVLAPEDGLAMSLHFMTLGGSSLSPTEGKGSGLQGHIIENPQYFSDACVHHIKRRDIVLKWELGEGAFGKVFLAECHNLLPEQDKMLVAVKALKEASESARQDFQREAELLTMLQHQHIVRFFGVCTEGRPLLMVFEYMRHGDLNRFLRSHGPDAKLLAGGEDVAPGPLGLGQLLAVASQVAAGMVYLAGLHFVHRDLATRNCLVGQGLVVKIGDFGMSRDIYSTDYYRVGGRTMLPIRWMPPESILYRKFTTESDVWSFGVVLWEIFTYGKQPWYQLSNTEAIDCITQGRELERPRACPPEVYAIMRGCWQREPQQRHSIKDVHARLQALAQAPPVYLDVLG
NTRK2, sequence (Q16620 32-822): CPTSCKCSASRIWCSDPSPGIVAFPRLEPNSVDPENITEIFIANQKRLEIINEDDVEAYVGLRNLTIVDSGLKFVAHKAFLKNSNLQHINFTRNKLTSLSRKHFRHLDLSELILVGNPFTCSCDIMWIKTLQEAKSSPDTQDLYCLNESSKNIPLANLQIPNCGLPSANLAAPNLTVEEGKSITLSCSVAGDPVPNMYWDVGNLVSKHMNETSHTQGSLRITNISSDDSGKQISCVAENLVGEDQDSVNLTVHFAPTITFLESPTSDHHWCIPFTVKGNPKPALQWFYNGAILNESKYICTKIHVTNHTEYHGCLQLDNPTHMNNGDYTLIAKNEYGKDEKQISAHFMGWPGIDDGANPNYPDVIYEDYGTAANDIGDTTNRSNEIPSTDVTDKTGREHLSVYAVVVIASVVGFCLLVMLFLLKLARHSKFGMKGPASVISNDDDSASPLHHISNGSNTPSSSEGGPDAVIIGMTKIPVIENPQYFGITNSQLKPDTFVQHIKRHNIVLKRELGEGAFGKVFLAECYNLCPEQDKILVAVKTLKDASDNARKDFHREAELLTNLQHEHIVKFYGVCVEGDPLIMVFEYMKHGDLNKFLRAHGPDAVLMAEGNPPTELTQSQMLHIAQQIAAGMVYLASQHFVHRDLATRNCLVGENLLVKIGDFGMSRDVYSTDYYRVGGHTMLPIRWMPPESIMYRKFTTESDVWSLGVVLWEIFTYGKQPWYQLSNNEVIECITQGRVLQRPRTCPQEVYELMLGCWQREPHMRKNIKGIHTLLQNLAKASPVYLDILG
NTRK3, sequence (Q16288 32-839): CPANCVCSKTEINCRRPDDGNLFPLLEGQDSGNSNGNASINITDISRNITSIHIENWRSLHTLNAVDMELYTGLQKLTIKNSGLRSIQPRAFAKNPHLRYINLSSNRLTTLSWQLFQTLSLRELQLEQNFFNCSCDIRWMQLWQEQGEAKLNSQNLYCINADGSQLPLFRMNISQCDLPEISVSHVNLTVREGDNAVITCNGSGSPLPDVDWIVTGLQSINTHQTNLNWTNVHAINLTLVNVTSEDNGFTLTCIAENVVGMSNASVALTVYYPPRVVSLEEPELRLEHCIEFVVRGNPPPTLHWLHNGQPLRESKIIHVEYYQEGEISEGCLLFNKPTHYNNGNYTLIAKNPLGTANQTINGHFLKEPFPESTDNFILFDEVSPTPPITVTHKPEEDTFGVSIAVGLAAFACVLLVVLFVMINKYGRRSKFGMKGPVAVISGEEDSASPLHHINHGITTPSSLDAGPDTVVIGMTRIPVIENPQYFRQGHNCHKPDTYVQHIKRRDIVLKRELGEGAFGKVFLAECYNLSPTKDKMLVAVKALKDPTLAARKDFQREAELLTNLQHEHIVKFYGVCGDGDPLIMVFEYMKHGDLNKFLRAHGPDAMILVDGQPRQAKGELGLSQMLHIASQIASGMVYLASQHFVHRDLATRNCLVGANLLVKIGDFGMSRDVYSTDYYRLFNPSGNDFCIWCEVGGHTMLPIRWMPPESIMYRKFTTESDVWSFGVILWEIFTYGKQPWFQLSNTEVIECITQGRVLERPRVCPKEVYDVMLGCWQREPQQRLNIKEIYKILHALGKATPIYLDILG

One may read the IC50 as the concentration at which inhibition is half-maximal. The term half-life denotes the time in which the quantity being followed falls by half. Regarding `O=C(Nc1ccccc1C(F)(F)F)N(Cc1ccn2nccc2c1)C1CCC1` [CDD-2274, 1-cyclobutyl-1-(pyrazolo[1,5-a]pyridin-5-ylmethyl)-3-(2-(trifluoromethyl)phenyl)urea], the results for the half-inhibitory concentration (IC50) on NTRK3, on NTRK2 and on NTRK1 were 5.3 nM, 4.5 nM and 12.4 nM, respectively. The half-life in data set [1] came to 5 min; in data set [2], 11.5 min.
Consider `O=C(Nc1ccccc1C(=O)NC1CCCCNC1=O)c1cc2ccccc2s1` (stereo not shown) [ANA-12, reference compound], for which the endometriotic lesion regression entry in the data set with endometriotic lesions (mice) was “endometriotic lesion regression”.
Regarding `CC(=O)c1ccc(OCC(=O)N(Cc2ccn3ncc(C(N)=O)c3c2)C(C)C)cc1` [CDD-3256, 5-((2-(4-acetylphenoxy)-N-isopropylacetamido)methyl)pyrazolo[1,5-a]pyridine-3-carboxamide], the IC50 came to 312 nM on NTRK3, 223 nM against NTRK2 and 1870 nM at NTRK1. Also, the half-life in data set [1] and in data set [2] was > 200 min each time.
As to `NC(=O)c1cnn2ccc(CN(C(=O)Nc3ccc(OC(F)(F)F)cc3)C3CC3)cc12` [CDD-2738, 5-((1-cyclopropyl-3-(4-(trifluoromethoxy)phenyl)ureido)methyl)pyrazolo[1,5-a]pyridine-3-carboxamide], the concentration for half-maximal inhibition (IC50) at NTRK3 amounted to 1.51 nM; on NTRK2, 0.52 nM; at NTRK1 it was 7.5 nM. Besides, the figures for the half-life in data set [1] and in data set [2] were 224 min and 381 min, respectively. For the same compound, the concentration at 24 h in data set [3] was found to be 2300 ng/g.
Take `CC(C)N(Cc1ccn2ncc(C(N)=O)c2c1)C(=O)COc1ccc(C(C)(C)C)cc1` [CDD-3184, 5-((2-(4-(tert-butyl)phenoxy)-N-isopropylacetamido)methyl)pyrazolo[1,5-a]pyridine-3-carboxamide]: the IC50 is 15.3 nM on NTRK3, 6.7 nM against NTRK2 and 61 nM on NTRK1. The half-life came out at 6.1 min in data set [1] and 107 min in data set [2].
Consider `CC(C)N(Cc1ccn2ncc(C#N)c2c1)C(=O)Nc1ccc(OC(F)(F)F)cc1` [CDD-2741, 1-((3-cyanopyrazolo[1,5-a]pyridin-5-yl)methyl)-1-isopropyl-3-(4-(trifluoromethoxy)phenyl)urea], for which the IC50 on NTRK3 worked out at 4.4 nM; at NTRK2, 5.8 nM; at NTRK1 it was 11.7 nM. For the same compound, the half-life in data set [1] stood at 41 min; in data set [2] it was 128 min.
For the compound `CC(C)(CO)n1cc(C(=O)c2cncc(NC(=O)Cc3ccc(Cl)cn3)c2)c2cnc(N)nc21` [PF-0672, reference compound], the “effect on liver and/or kidney weight and/or serum elevation of ALT and AST” value in data set [4] is reported as “little to no effect”.
As to `CC(C)N(Cc1ccn2ncc(C(=N)NO)c2c1)C(=O)Nc1ccc(OC(F)(F)F)cc1` [CDD-2744, N-hydroxy-5-((1-isopropyl-3-(4-(trifluoromethoxy)phenyl)ureido)methyl)pyrazolo[1,5-a]pyridine-3-carboximidamide], the half-maximal inhibitory concentration (IC50) on NTRK3 was 2.9 nM; at NTRK2 it was 1.7 nM; on NTRK1, 18.1 nM. The figures for the half-life in data set [1] and in data set [2] were 121 min and 388 min, respectively.
The like results for `NC(=O)c1cnn2ccc(CNC(=S)Nc3ccc(OC(F)(F)F)cc3)cc12` [CDD-3131, 5-((3-(4-(trifluoromethoxy)phenyl)thioureido)methyl)pyrazolo[1,5-a]pyridine-3-carboxamide] were, in that order, 153 nM, 132 nM, 749 nM, 351 min and 237 min.
For `CC(=O)c1ccc(OCC(=O)N(C)Cc2ccn3ncc(C(N)=O)c3c2)cc1` [CDD-3257, 5-((2-(4-acetylphenoxy)-N-methylacetamido)methyl)pyrazolo[1,5-a]pyridine-3-carboxamide], the IC50 worked out at 10900 nM at NTRK3, 10600 nM against NTRK2 and 58200 nM at NTRK1. The half-life in data set [1] and in data set [2] was > 200 min throughout.
Regarding `CN(Cc1ccn2ncc(C(N)=O)c2c1)C(=S)Nc1ccc(OC(F)(F)F)cc1` [CDD-3118, 5-((1-methyl-3-(4-(trifluoromethoxy)phenyl)thioureido)methyl)pyrazolo[1,5-a]pyridine-3-carboxamide], the concentration for half-maximal inhibition (IC50) on NTRK3 stood at 21.5 nM; on NTRK2 it was 19 nM; at NTRK1, 151 nM. Besides, the half-life amounted to 688 min in data set [1] and 382 min in data set [2].
The matching figures for `C=C(C)c1ccc(OCC(=O)N(Cc2ccn3ncc(C(N)=O)c3c2)C(C)C)cc1` [CDD-3255, 5-((N-isopropyl-2-(4-(prop-1-en-2-yl)phenoxy)acetamido)methyl)pyrazolo[1,5-a]pyridine-3-carboxamide]: 54 nM, 31.5 nM, 357 nM, 19 min and 45 min.
Take `CN(Cc1ccn2ncc(C(N)=O)c2c1)C(=O)COc1ccc(OC(F)(F)F)cc1` [CDD-3132, 5-((N-methyl-2-(4-(trifluoromethoxy)phenoxy)acetamido)methyl)pyrazolo[1,5-a]pyridine-3-carboxamide]: the concentration for half-maximal inhibition (IC50) on NTRK3 was found to be 1370 nM; against NTRK2, 517 nM; at NTRK1, 4560 nM. The half-life in data set [1] amounted to 706 min; in data set [2], 691 min. Besides, the “number, volume and mass of lesions” value in the data set on endometriotic lesions (setting [5]) is “reduction of lesions, volume of lesions, and mass of lesions”. Besides, in the data set on endometriotic lesions (setting [5]), the “size of endometriotic lesions” value was “decreased size of endometriotic lesions”. The endometriotic lesion growth entry with endometriotic lesions (10 mg/kg, excised lesions) is recorded as “inhibiting endometriotic lesion growth”. The “proliferation, vascularization, macrophage infiltration, inflammation within endometriotic lesions” value with endometriotic lesions (10 mg/kg, H&E staining, confocal microscopy) is reported as “reduction of proliferation, vascularization, macrophage infiltration, and/or inflammation”. Besides, the “effect on liver and/or kidney weight and/or serum elevation of ALT and AST” value in data set [4] is “little to no effect”. The “ALT (Mean ± SD)” value in data set [4] (setting [6]) came out at 20.5 ± 12.6. For the same compound, the “AST (Mean ± SD)” value in data set [4] (setting [6]) was 33.5 ± 20.6. For the same compound, the “impact on liver and kidney weights” value in data set [4] (mice treated for 14 days) is “no significant impact”.
For `CC(C)N(Cc1ccn2ncc(C(N)=O)c2c1)C(=O)COc1ccc(OC(F)(F)F)cc1` [CDD-3133, 5-((N-isopropyl-2-(4-(trifluoromethoxy)phenoxy)acetamido)methyl)pyrazolo[1,5-a]pyridine-3-carboxamide], the 50% inhibitory concentration (IC50) at NTRK3 turned out to be 10.1 nM; on NTRK2 it was 4.3 nM; on NTRK1, 16.6 nM. For the same compound, the half-life in data set [1] was found to be 185 min; in data set [2] it was 602 min.
As to `O=C(Nc1cccc(C(F)(F)F)c1)N(Cc1ccn2nccc2c1)C1CCC1` [CDD-2273, 1-cyclobutyl-1-(pyrazolo[1,5-a]pyridin-5-ylmethyl)-3-(3-(trifluoromethyl)phenyl)urea], the results for the half-life in data set [1] and in data set [2] were 8.2 min and 15.5 min, respectively. The compound further came in with an IC50 on NTRK2 of 1320 nM.
In the case of `O=C(Nc1ccc(OC(F)(F)F)cc1)N(Cc1ccn2nccc2c1)C1CCCC1` [CDD-2276, 1-cyclopentyl-1-(pyrazolo[1,5-a]pyridin-5-ylmethyl)-3-(4-(trifluoromethoxy)phenyl)urea], the half-life in data set [1] amounted to 35 min; in data set [2] it was 14 min. Half-maximal inhibition at NTRK2 (IC50) was put at 19 nM.
In the case of `CN(Cc1ccn2ncc(C(N)=O)c2c1)C(=O)CNc1ccc(OC(F)(F)F)cc1` [CDD-3258, 5-((N-methyl-2-((4-(trifluoromethoxy)phenyl)amino)acetamido)methyl)pyrazolo[1,5-a]pyridine-3-carboxamide], the IC50 turned out to be 2320 nM at NTRK3, 963 nM against NTRK2 and 11000 nM on NTRK1. Moreover, the half-life in data set [1] was found to be 338 min; in data set [2], 270 min.
Take `CC(C)N(Cc1ccn2ncc(F)c2c1)C(=O)Nc1ccc(OC(F)(F)F)cc1` [CDD-2734, 1-((3-fluoropyrazolo[1,5-a]pyridin-5-yl)methyl)-1-isopropyl-3-(4-(trifluoromethoxy)phenyl)urea]: the half-life in data set [1] stood at 21 min; in data set [2], 58 min. Also, the 50% inhibitory concentration (IC50) against NTRK2 is 5.3 nM; on NTRK1, 36 nM.
For the compound `CC(C)N(Cc1ccn2ncc(C(N)=O)c2c1)C(=O)CNc1ccc(OC(F)(F)F)cc1` [CDD-3254, 5-((N-isopropyl-2-((4-(trifluoromethoxy)phenyl)amino)acetamido)methyl)pyrazolo[1,5-a]pyridine-3-carboxamide], the IC50 worked out at 142 nM at NTRK3, 59 nM on NTRK2 and 277 nM at NTRK1. Moreover, the values for the half-life in data set [1] and in data set [2] were 143 min and 193 min, respectively.

Values taken from US20260049077A1, “Neurotrophic Receptor Tyrosine Kinase (NTRK) Inhibitors and Methods Using Same” (Baylor College of Medicine, priority 2022, published 2026).
